A short description of data set [1]: in vitro. To be noted: human.
Data set [2] relates to HCV replicon (Genotype 1b). Kind of data set: Luciferase genotype 1b replicon potency assay. To be noted: Hepatitis C virus.
Setting [3] is: GETYPE1B, read-out: IC50 μM, HCV genotype 1b luciferase replicon, Renilla luciferase reporter.

Molecules are shown by their SMILES. Where two headings read alike, the source gives them in different places.

A word on the IC50: it is the concentration that gives 50% inhibition. As to `COc1nc(N)nc2c1ncn2C1O[C@H](COP(=O)(N[C@@H](C)C(=O)OCc2ccc(F)cc2F)Oc2cccc3ccccc23)[C@@H](O)[C@@]1(C)O` (stereo partly drawn) [Example 14, (2S)-2,4-difluorobenzyl 2-((((2R,3R,4R)-5-(2-amino-6-methoxy-9H-purin-9-yl)-3,4-dihydroxy-4-methyltetrahydrofuran-2-yl)methoxy)(naphthalen-1-yloxy)phosphorylamino)propanoate], the CC50 in data set [1] is 15 µM. The IC50 in data set [2] (setting [3]) was 0.04 µM.
For `CCC(C)[C@H](NP(=O)(OC[C@H]1OC(n2cnc3c(OC)nc(N)nc32)[C@](C)(O)[C@@H]1O)Oc1cccc2ccccc12)C(=O)OCC(C)(C)C` (stereo partly shown) [Example 62] the same measures were 18 µM and 0.86 µM.
Taken in the same sequence, the figures for `CSc1nc(N)nc2c1ncn2C1O[C@H](COP(=O)(N[C@@H](C)C(=O)O[C@@H](C)c2ccccc2)Oc2cccc3ccccc23)[C@@H](O)[C@@]1(C)O` (stereo partly drawn) [Example 89, (2S)-((S)-1-phenylethyl) 2-((((2R,3R,4R)-5-(2-amino-6-(methylthio)-9H-purin-9-yl)-3,4-dihydroxy-4-methyltetrahydrofuran-2-yl)methoxy)(naphthalen-1-yloxy)phosphorylamino)propanoate] were 27 µM and 0.14 µM.
Taken in the same sequence, the figures for `COc1nc(N)nc2c1ncn2C1O[C@H](COP(=O)(N[C@@H](C)C(=O)OC2CCOCC2)Oc2cccc3ncccc23)[C@@H](O)[C@@]1(C)O` (stereo partly drawn) [Example 32, (2S)-tetrahydro-2H-pyran-4-yl 2-((((2R,3R,4R)-5-(2-amino-6-methoxy-9H-purin-9-yl)-3,4-dihydroxy-4-methyltetrahydrofuran-2-yl)methoxy)(quinolin-5-yloxy)phosphorylamino)propanoate] were > 100 µM and 1.2 µM.
Take `COc1nc(N)nc2c1ncn2C1O[C@H](COP(=O)(N[C@H](C(=O)OCC(C)(C)C)C(C)C)Oc2cc(C(C)(C)C)cc3ccccc23)[C@@H](O)[C@@]1(C)O` (stereo partly shown) [Example 55]: in data set [1], the CC50 was determined as 13 µM. Also, the IC50 in data set [2] (setting [3]) is 2.1 µM.
Taken in the same sequence, the figures for `CNc1nc(N)nc2c1ncn2[C@@H]1O[C@H](COP(=O)(N[C@@H](C)C(=O)OCC(C)(C)C)Oc2ccc3ncccc3c2)[C@@H](O)[C@@]1(C)O` (stereo partly drawn) [Example 83, (2S)-neopentyl 2-((((2R,3R,4R,5R)-5-(2-amino-6-(methylamino)-9H-purin-9-yl)-3,4-dihydroxy-4-methyltetrahydrofuran-2-yl)methoxy)(quinolin-6-yloxy)phosphorylamino)propanoate] were > 100 µM and 0.36 µM.
In data set [1], `COc1nc(N)nc2c1ncn2C1O[C@H](COP(=O)(N[C@@H](C)C(=O)OC(C)C)Oc2cccc3ccccc23)[C@@H](O)[C@@]1(C)O` (stereo partly drawn) [Example 23, (2S)-isopropyl 2-((((2R,3R,4R)-5-(2-amino-6-methoxy-9H-purin-9-yl)-3,4-dihydroxy-4-methyltetrahydrofuran-2-yl)methoxy)(naphthalen-1-yloxy)phosphorylamino)propanoate] showed a CC50 of 100 µM. Also, the IC50 in data set [2] (setting [3]) was determined as 0.43 µM.
Taken in the same sequence, the figures for `COc1nc(N)nc2c1ncn2[C@@H]1O[C@H](COP(=O)(N[C@@H](CC(C)C)C(=O)OCC(C)(C)C)Oc2cccc3ccccc23)[C@@H](O)[C@@]1(C)O` (stereo partly shown) [Example 61] were 14 µM and 0.071 µM.
Taken in the same sequence, the figures for `COC(=O)[C@@H](C)c1ccc2cc(OP(=O)(N[C@@H](C)C(=O)OC3CCOCC3)OC[C@H]3OC(n4cnc5c(OC)nc(N)nc54)[C@](C)(O)[C@@H]3O)ccc2c1` (stereo partly drawn) [Example 29, (2S)-methyl 2-(6-((((2R,3R,4R)-5-(2-amino-6-methoxy-9H-purin-9-yl)-3,4-dihydroxy-4-methyltetrahydrofuran-2-yl)methoxy)((S)-1-oxo-1-(tetrahydro-2H-pyran-4-yloxy)propan-2-ylamino)phosphoryloxy)naphthalen-2-yl)propanoate] were > 100 µM and 0.11 µM.
For `CCOc1nc(N)nc2c1ncn2C1O[C@H](COP(=O)(N[C@@H](C)C(=O)OC(C)C)Oc2cccc3ccccc23)[C@@H](O)[C@@]1(C)O` (stereo partly drawn) [Example 77, (2S)-isopropyl 2-((((2R,3R,4R)-5-(2-amino-6-ethoxy-9H-purin-9-yl)-3,4-dihydroxy-4-methyltetrahydrofuran-2-yl)methoxy)(naphthalen-1-yloxy)phosphorylamino)propanoate] the same measures were 40 µM and 0.11 µM.
Turning to `CCOc1nc(N)nc2c1ncn2C1O[C@H](COP(=O)(N[C@@H](C)C(=O)OCC(C)(C)C)Oc2cccc3ccccc23)[C@@H](O)[C@@]1(C)O` (stereo partly shown) [Example 76], in data set [1], the CC50 is 10 µM. Also, the IC50 in data set [2] (setting [3]) came to 0.01 µM.
Regarding `C[C@H](NP(=O)(OC[C@H]1OC(n2cnc3c(NCc4ccccc4)nc(N)nc32)[C@](C)(O)[C@@H]1O)Oc1cccc2ccccc12)C(=O)OCC(C)(C)C` (stereo partly shown) [Example 85], in data set [1], the CC50 stood at 15 µM. Besides, in data set [2] (setting [3]), the IC50 was 0.58 µM.
For `COc1nc(N)nc2c1ncn2C1O[C@H](COP(=O)(N[C@H](C(=O)O[C@@H](C)c2ccccc2Br)C(C)C)Oc2cccc3ccccc23)[C@@H](O)[C@@]1(C)O` (stereo partly drawn) [Example 40, (2S)-((S)-1-(2-bromophenyl)ethyl) 2-((((2R,3R,4R)-5-(2-amino-6-methoxy-9H-purin-9-yl)-3,4-dihydroxy-4-methyltetrahydrofuran-2-yl)methoxy)(naphthalen-1-yloxy)phosphorylamino)-3-methylbutanoate] the same measures were 44 µM and 2.9 µM.
With `COC(=O)[C@@H](NP(=O)(OC[C@H]1OC(n2cnc3c(OC)nc(N)nc32)[C@](C)(O)[C@@H]1O)Oc1cccc2ccccc12)c1ccccc1` (stereo partly shown) [Example 64], the CC50 in data set [1] is > 100 µM. Moreover, the half-maximal inhibitory concentration (IC50) in data set [2] (setting [3]) came to 0.49 µM.
As to `CNc1nc(N)nc2c1ncn2C1O[C@H](COP(=O)(N[C@@H](C)C(=O)OCC(C)(C)C)Oc2cccc3ccccc23)[C@@H](O)[C@@]1(C)O` (stereo partly drawn) [Example 81, (2S)-neopentyl 2-((((2R,3R,4R)-5-(2-amino-6-(methylamino)-9H-purin-9-yl)-3,4-dihydroxy-4-methyltetrahydrofuran-2-yl)methoxy)(naphthalen-1-yloxy)phosphorylamino)propanoate], the CC50 in data set [1] came out at 48 µM. The IC50 in data set [2] (read-out: IC50 μM) came to 0.033 µM.
`COc1nc(N)nc2c1ncn2C1O[C@H](COP(=O)(N[C@H](C(=O)OCC(C)(C)C)C(C)C)Oc2cccc3ncccc23)[C@@H](O)[C@@]1(C)O` (stereo partly drawn) [Example 50, (2S)-neopentyl 2-((((2R,3R,4R)-5-(2-amino-6-methoxy-9H-purin-9-yl)-3,4-dihydroxy-4-methyltetrahydrofuran-2-yl)methoxy)(quinolin-5-yloxy)phosphorylamino)-3-methylbutanoate]: the CC50 in data set [1] is > 100 µM. In addition, in data set [2] (setting [3]), the IC50 came out at 0.55 µM.
For `COc1nc(N)nc2c1ncn2C1O[C@H](COP(=O)(N[C@H](C(=O)OCc2ccc(F)cc2F)C(C)C)Oc2cccc3ncccc23)[C@@H](O)[C@@]1(C)O` (stereo partly drawn) [Example 49, (2S)-2,4-difluorobenzyl 2-((((2R,3R,4R)-5-(2-amino-6-methoxy-9H-purin-9-yl)-3,4-dihydroxy-4-methyltetrahydrofuran-2-yl)methoxy)(quinolin-5-yloxy)phosphorylamino)-3-methylbutanoate] the same measures were > 100 µM and 0.17 µM.
As for `COc1nc(N)nc2c1ncn2C1O[C@H](COP(=O)(N[C@H](C(=O)OCC(C)(C)C)C(C)C)Oc2ccc3ncccc3c2)[C@@H](O)[C@@]1(C)O` (stereo partly drawn) [Example 52, (2S)-neopentyl 2-((((2R,3R,4R)-5-(2-amino-6-methoxy-9H-purin-9-yl)-3,4-dihydroxy-4-methyltetrahydrofuran-2-yl)methoxy)(quinolin-6-yloxy)phosphorylamino)-3-methylbutanoate], the CC50 in data set [1] was > 100 µM. In data set [2] (setting [3]), the IC50 was determined as 0.19 µM.
In data set [1], `CSc1nc(N)nc2c1ncn2C1O[C@H](COP(=O)(N[C@@H](C)C(=O)OCC(C)(C)C)Oc2cccc3ccccc23)[C@@H](O)[C@@]1(C)O` (stereo partly drawn) [Example 90, (2S)-neopentyl 2-((((2R,3R,4R)-5-(2-amino-6-(methylthio)-9H-purin-9-yl)-3,4-dihydroxy-4-methyltetrahydrofuran-2-yl)methoxy)(naphthalen-1-yloxy)phosphorylamino)propanoate] displayed a CC50 of 41 µM. Besides, in data set [2] (setting [3]), the 50% inhibitory concentration (IC50) came to 0.033 µM.
Compound `COc1nc(N)nc2c1ncn2C1O[C@H](COP(=O)(N[C@@H](C)C(=O)OC2CCCCC2)Oc2cccc3ccccc23)[C@@H](O)[C@@]1(C)O` (stereo partly drawn) [Example 25, (2S)-cyclohexyl 2-((((2R,3R,4R)-5-(2-amino-6-methoxy-9H-purin-9-yl)-3,4-dihydroxy-4-methyltetrahydrofuran-2-yl)methoxy)(naphthalen-1-yloxy)phosphorylamino)propanoate] registered a CC50 in data set [1] of 6 µM. In addition, the IC50 in data set [2] (setting [3]) amounted to 0.014 µM.
With `COc1nc(N)nc2c1ncn2C1O[C@H](COP(=O)(N[C@H](C(=O)OC2CCCCC2)C(C)C)Oc2cccc3ccccc23)[C@@H](O)[C@@]1(C)O` (stereo partly shown) [Example 46], in data set [1], the CC50 was 24 µM. The IC50 in data set [2] (setting [3]) amounted to 0.42 µM.
For `COc1nc(N)nc2c1ncn2C1O[C@H](COP(=O)(N[C@H](C(=O)OCC(C)(C)C)c2ccccc2)Oc2cccc3ccccc23)[C@@H](O)[C@@]1(C)O` (stereo partly shown) [Example 66], in data set [1], the CC50 worked out at 19 µM. The IC50 in data set [2] (setting [3]) worked out at 0.032 µM.
`COc1nc(N)nc2c1ncn2C1O[C@H](COP(=O)(N[C@H](C(=O)OC2CCCCC2)c2ccccc2)Oc2cccc3ccccc23)[C@@H](O)[C@@]1(C)O` (stereo partly drawn) [Example 67, (2S)-cyclohexyl 2-((((2R,3R,4R)-5-(2-amino-6-methoxy-9H-purin-9-yl)-3,4-dihydroxy-4-methyltetrahydrofuran-2-yl)methoxy)(naphthalen-1-yloxy)phosphorylamino)-2-phenylacetate] had a CC50 in data set [1] of 22 µM. Also, the IC50 in data set [2] (setting [3]) is 0.054 µM.
